# Laboratory results taken from US11944603B2, “Use of compound or medicinal derivative thereof in inhibiting AIM2 protein activity” (priority 2022, dated 2024).
# pKd: −log10 of the molar value.
# Key:
# [1] = biological target: T1, human AIM2 protein (Homo sapiens, UniProt O14862); test: Affinity by surface-plasmon resonance (Biacore), amino coupling; conditions: human full-length AIM2 protein, SPR; read-out: binding constant
# T1 construct: a human full-length AIM2 protein is expressed and purified firstly by pET28a vector; made in house
# T1 sequence (O14862 1-343): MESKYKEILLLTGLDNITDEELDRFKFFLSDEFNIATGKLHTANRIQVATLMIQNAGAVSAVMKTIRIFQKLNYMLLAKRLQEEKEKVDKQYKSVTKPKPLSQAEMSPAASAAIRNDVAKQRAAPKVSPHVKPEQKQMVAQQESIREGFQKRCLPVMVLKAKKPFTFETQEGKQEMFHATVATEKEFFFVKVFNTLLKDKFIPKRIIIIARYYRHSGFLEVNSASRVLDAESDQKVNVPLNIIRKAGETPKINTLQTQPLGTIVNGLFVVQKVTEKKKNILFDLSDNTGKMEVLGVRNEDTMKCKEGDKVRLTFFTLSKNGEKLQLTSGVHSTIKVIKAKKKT
# Experimental: In the embodiment of the disclosure, the affinity between SLD-1 and human AIM2 protein is detected. Specifically, a human full-length AIM2 protein is expressed and purified firstly by pET28a vector, and then the affinity is determined by CMS chip amino-coupling method through a surface-plasmon resonance (SPR) method of Biacore.
# [2] = biological target: T2, mouse AIM2 protein (Mus musculus, UniProt Q91VJ1); test: Affinity by surface plasmon resonance (Biacore), amino coupling; conditions: mouse full-length AIM2 protein, SPR; read-out: binding constant
# T2 construct: a mouse full-length AIM2 protein is expressed and purified firstly by pET28a vector; made in house
# T2 sequence (Q91VJ1 1-354): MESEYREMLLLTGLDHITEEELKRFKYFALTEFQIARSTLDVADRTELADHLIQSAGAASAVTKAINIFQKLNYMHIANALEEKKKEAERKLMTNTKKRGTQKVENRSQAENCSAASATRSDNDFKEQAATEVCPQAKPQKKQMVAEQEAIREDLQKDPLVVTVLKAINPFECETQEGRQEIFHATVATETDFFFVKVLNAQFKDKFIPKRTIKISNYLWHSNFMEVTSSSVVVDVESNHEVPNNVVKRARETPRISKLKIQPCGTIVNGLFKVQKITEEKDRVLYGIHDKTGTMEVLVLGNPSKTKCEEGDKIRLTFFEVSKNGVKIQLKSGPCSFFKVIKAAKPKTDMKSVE
# Experimental: In the embodiment of the disclosure, the affinity between SLD-1 and mouse AIM2 protein is detected. Specifically, a mouse full-length AIM2 protein is expressed and purified firstly by pET28a vector, and then the affinity is determined by CMS chip amino coupling method by a surface plasmon resonance (SPR) method of Biacore.
# [3] = tested on: IL-1β mRNA in HaCaT cells; test: Screening in HaCaT cell model stimulated by OligodA-T, real-time PCR of IL-1β mRNA; type: cell-based; conditions: 10 uM, 24 hours, OligodA-T 1 ug/mL, among 100 compounds
# Experimental: The protective ability of 100 compounds screened above against cell pyroptosis of HaCaT cells stimulated by OligodA-T is evaluated by the real-time fluorescent quantitative polymerase chain reaction (PCR) detection of IL-1β mRNA in the stimulated cells.
# 1. Positive control (PC) and negative control (NC) are set in the experimental group. An inclusion of Lip3000 (Lipofectamine™ 3000 Transfection Reagent) and OligodA-T (OligodA-T:Lip3000:P3000=1:1:25, a concentration of OligodA-T is 1 microgram per […] (ug/mL)) is used to transfect HaCat cells. Lip3000-OligodA-T and 10 micromoles per liter (uM) small molecule inhibitor are used to transfect the HaCat cells in each treatment group, and only the same amount of transfection reagent (Lip3000:P3000=1:1) is added in NC group.
# 2. Each experimental group is incubated in a cell incubator containing 5% CO2 for 24 hours at 37° C., and the cells are collected for real-time fluorescence PCR detection.
# [4] = tested on: AIM2 pathway in HaCaT cells; test: HaCaT cell model, real-time fluorescence PCR of IL-1β and AIM2 pathway genes; type: cell-based; conditions: 25 uM
# Experimental: (§1) (1) A positive control (PC), a negative control (NC) and respective treatment groups are set. An inclusion of Lip3000 (Lipofectamine™ 3000 Transfection Reagent) and OligodA-T (OligodA-T:Lip3000:P3000=1:1:25, a concentration of OligodA-T is 1 ug/mL) is used to transfect HaCat cells, and only the same amount of transfection reagent (Lip3000:P3000=1:1) is added in NC group. The HaCat cells are co-transfected with an inclusion of Lip3000-OligodA-T at gradient doses (0.1 uM, 1 uM, 5 uM, 10 uM and 25 uM) of SLD-1 in the respective treatment groups.
# (2) The positive control (PC), negative control (NC) and the respective treatment groups are incubated in a cell incubator containing 5% CO2 at 37° C. for 24 hours, and the cells are collected for real-time fluorescence PCR detection to observe the effect of different doses of inhibitors on the activation of AIM2 pathway in the HaCaT cells.
# (4) In addition, the effect of 25 uM of SLD-1 on the transcription level of genes in the AIM2 pathway of the HaCat cell model is detected, and results are shown in FIG. 11.
# [5] = tested on: HaCaT cells; test: HaCaT cell model, cell state under microscope (pyroptosis); type: cell-based; conditions: 25 uM, microscope 100 times and 400 times
# Experimental: as §1
# (3) In this situation, a cell state of 25 uM gradient is observed under microscope fields of 100 times and 400 times, and results are shown in FIG. 10.
# [6] = tested on: AIM2 downstream protein in HaCaT cells; test: HaCaT cell model, expression of AIM2 downstream protein; type: cell-based; conditions: 25 uM
# Experimental: as §1
# (5) Moreover, the expression of AIM2 downstream protein in the HaCaT cells treated with 25 uM SLD-1 is detected, and results are shown in FIG. 12.
# [7] = tested on: IMQ mice; test: IMQ psoriasis mouse model: PASI scores, skin phenotype, skin pathology; type: in vivo, C57/BL6 mice
# Experimental: (§2) Dimethyl sulfoxide (DMSO) is used to dissolve SLD-1 powder, the powder is weighed according to different dosage, then diluted with β-cyclodextrin, and a final concentration of DMSO shall not exceed 5%. The dose gradients of SLD-1 set are 0 mg/kg, 2.5 mg/kg, 5 mg/kg and 10 mg/kg respectively. Each mouse is calculated as 20 grams (g), and 0 mg, 0.05 mg, 0.1 mg and 0.2 mg of SLD-1 are administered respective mice every day.
# (§3) Seven-week-old C57/BL6 mice are selected, fed and modeled in a […] (SPF) environment. The experimental groups are as follows: • (1) mouse skin smeared with IMQ and 0 mg/kg of SLD-1; • (2) mouse skin smeared with IMQ and 2.5mg/kg of SLD-1; • (3) mouse skin smeared with IMQ and 5 mg/kg of SLD-1; • (4) mouse skin smeared with IMQ and 10 mg/kg of SLD-1; • (5) mouse skin smeared with Vaseline and 0 mg/kg of SLD-1; • (6) mouse skin smeared with Vaseline and 2.5mg/kg of SLD-1; • (7) mouse skin smeared with Vaseline and 5 mg/kg of SLD-1; and • (8) mouse skin smeared with Vaseline and 10 mg/kg of SLD-1.
# (§4) Six mice in each group are shaved back hair to make a exposed skin reach 4 square centimeters. A start date of the experiment is set as day 0 and an end date is set as day 6. From day 0 to Day 5, 100 μL medicine solution is taken every day and evenly smeared mouse skin to absorb. From day 2 to day 5, each mouse 62.5 mg IMQ is smeared every day after 20 minutes of SLD-1 inhibitor. The mouse skins are scored every day, the mice are sacrificed on day 6, and skin tissue is taken for a series of tests.
# PASI scores, skin phenotypes and skin pathological phenotypes of the above IMQ modeled mice are shown in FIG. 13, FIG. 14 and FIG. 15 respectively.
# [8] = tested on: T lymphocytes of TCRγ/CD3+ RORγt in mouse skin; test: IMQ psoriasis mouse model: flow cytometry of skin lymphocytes; type: in vivo, C57/BL6 mice; conditions: 2.5 mg/kg, compared with IMQ mice without SLD-1
# Experimental: as §2, §3
# Six mice in each group are shaved back hair to make a exposed skin reach 4 square centimeters. A start date of the experiment is set as day 0 and an end date is set as day 6. […] The mouse skins are scored every day, the mice are sacrificed on day 6, and skin tissue is taken for a series of tests. […]
# [9] = tested on: AIM2 pathway in mouse skin; test: IMQ psoriasis mouse model: AIM2 pathway gene transcription and protein levels in skin; type: in vivo, C57/BL6 mice
# Experimental: as §2, §3, §4
smiles,measurement,setting,value
Cn1c(=O)n(C)c2cc(C(O)COc3ccc(CNC4C5CC6CC(C5)CC4C6)cc3)ccc21 (stereo not drawn) [SLD-1],pKd,[1],4.99
same,pKd,[2],4.99
same,inhibitory effect on IL-1β mRNA compared with the positive control,[3],most significant inhibitory effect (p<0.0001)
same,transcription of major genes in the AIM2 pathway compared with the PC,[4],significantly decreased
same,IL-1β transcription levels compared to the PC,"[4]; of gradient 0.1, 1, 5, 10, 25 uM, 24 hours",reduced IL-β transcription levels in the HaCat cells the most
same,"cell state (pyroptosis, density, adhesion)",[5],"close to that of the NC, with very few transparent pyroptosis cells, a high cell density and a good adhesion"
same,AIM2 downstream procaspase-1 and proIL-1β expression,[6],no effect
same,content of caspase-1p20 and IL-1βp17,[6],reduces the content of caspase-1p20 and IL-1βp17
same,reduction effect on inflammatory phenotype of IMQ mice,[7]; 2.5 mg/kg smeared on skin,the most significant
same,"reduction effect on inflammatory phenotype of IMQ mice, comparison of doses",[7]; 5 mg/kg and 10 mg/kg smeared on skin,no difference between 5 mg/kg and 10 mg/kg
same,"inflammatory phenotype of IMQ mice (PASI, skin phenotype, pathology)","[7]; three doses 2.5, 5, 10 mg/kg smeared on skin, day 0 to day 5",reduced the inflammatory phenotype of IMQ mice to varying degrees
same,proportion of TCRγ/CD3+ RORγt in skin lymphocytes,[8],significantly lower
same,AIM2 downstream procaspase-1 and proil-1β in the mouse skin,[9]; 2.5 mg/kg,no effect
same,content of caspase-1p20 and IL-1βp17 in the mouse skin,[9]; 2.5 mg/kg,decreases the content of caspase-1p20 and IL-1βp17
same,transcription levels of AIM2 pathway genes in the mouse skin,[9]; respective groups,no significant difference
